Measured values taken from patent US7732429B2 (Trustees of Tufts College, priority 1994, dated 2010).
pKi: −log10 of the molar value.

Key:
[1] = target: T1, efflux protein (Escherichia coli, UniProt P02980); test: everted membrane vesicle assay, blocking activity of 13-S-derivatives; assay type: biochemical; conditions: blocking activity against the efflux protein, everted membrane vesicle assay
T1 sequence (P02980 1-401): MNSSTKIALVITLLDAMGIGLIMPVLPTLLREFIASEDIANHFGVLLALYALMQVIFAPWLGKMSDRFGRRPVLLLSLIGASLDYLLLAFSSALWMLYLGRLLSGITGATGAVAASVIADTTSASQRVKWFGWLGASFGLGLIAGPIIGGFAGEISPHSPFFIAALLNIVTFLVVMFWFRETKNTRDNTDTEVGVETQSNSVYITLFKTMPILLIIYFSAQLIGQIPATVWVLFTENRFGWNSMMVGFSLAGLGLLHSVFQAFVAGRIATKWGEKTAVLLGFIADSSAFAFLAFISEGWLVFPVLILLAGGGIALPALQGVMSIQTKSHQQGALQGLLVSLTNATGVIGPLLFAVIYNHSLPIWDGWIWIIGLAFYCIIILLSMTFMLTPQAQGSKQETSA

[2] = system: E. coli DI-299 (Tet A); test: MIC/MLC chart, analog with and without doxycycline; assay type: cell-based; set-up: key to growth/killing, Analog + Doxy / growth/killing, Doxy Control / growth/killing, Analog Control / growth in MIC/MLC chart: +=growth; 0=no growth (MIC); ↓=killing; ? =99.9% killing (MLC); □=no growth, but no microbiologic testing;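 note: bacterial growth inhibition and killing in broth, each agent tested alone or combined with doxycycline across two-fold serial dilutions, overnight incubation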
[3] = system: E. faecalis 211 (Tet M); test: MIC/MLC chart, analog with and without doxycycline; assay type: cell-based
[4] = system: S. aureus 4250 (Tet K); test: MIC/MLC chart, analog with and without doxycycline; assay type: cell-based
[5] = system: E. faecalis 158 (Tet L); test: MIC/MLC chart, analog with and without doxycycline; assay type: cell-based
[6] = Analog Control: analog alone 1.56 μg/ml
[7] = Analog Control: analog alone .195 μg/ml
[8] = Analog Control: analog alone .39 μg/ml
[9] = Analog Control: analog alone .78 μg/ml
[10] = analog 1.56 μg/ml + doxycycline 1.55 μg/ml
[11] = analog 1.56 μg/ml + doxycycline 3.1 μg/ml
[12] = analog 1.56 μg/ml + doxycycline 6.2 μg/ml
[13] = analog .195 μg/ml + doxycycline 1.56 μg/ml
[14] = analog .195 μg/ml + doxycycline 3.12 μg/ml
[15] = analog .195 μg/ml + doxycycline 6.25 μg/ml
[16] = analog .195 μg/ml + doxycycline 12.5 μg/ml
[17] = analog .39 μg/ml + doxycycline 1.56 μg/ml
[18] = analog .39 μg/ml + doxycycline 3.12 μg/ml
[19] = analog .39 μg/ml + doxycycline 6.25 μg/ml
[20] = analog .39 μg/ml + doxycycline 12.5 μg/ml
[21] = analog .78 μg/ml + doxycycline 1.56 μg/ml
[22] = analog .78 μg/ml + doxycycline 3.12 μg/ml
[23] = analog .78 μg/ml + doxycycline 6.23 μg/ml
[24] = Doxy Control: doxycycline alone 1.56 μg/ml
[25] = Doxy Control: doxycycline alone 3.12 μg/ml
[26] = Doxy Control: doxycycline alone 6.25 μg/ml
[27] = Doxy Control: doxycycline alone 12.5 μg/ml

CCCCSCC1c2cccc(O)c2C(=O)C2=C(O)C3(O)C(=O)C(C(N)=O)=C(O)C(N(C)C)C3C(O)C21 (stereo not drawn) [Butyl]
Ki [1]: 0.5 µg/mL

CCCSCC1c2cccc(O)c2C(=O)C2=C(O)C3(O)C(=O)C(C(N)=O)=C(O)C(N(C)C)C3C(OC(=O)CC)C21 (stereo not drawn) [Cmpd 13-propyl-thio-5-proprionate]
growth in MIC/MLC chart [2, 6]: + | growth in MIC/MLC chart ([2]; Analog Control: analog alone 3.12 μg/ml): + | growth in MIC/MLC chart ([2]; Analog Control: analog alone 6.25 μg/ml): + | growth in MIC/MLC chart ([2]; Analog Control: analog alone 12.5 μg/ml): + | growth in MIC/MLC chart ([2]; Analog Control: analog alone 25.0 μg/ml): + | growth in MIC/MLC chart ([2]; Analog Control: analog alone 50.00 μg/ml): + | growth in MIC/MLC chart [2, 7]: + | growth in MIC/MLC chart [2, 8]: + | growth in MIC/MLC chart [2, 9]: + | growth in MIC/MLC chart [2, 10]: + | growth in MIC/MLC chart [2, 11]: + | growth in MIC/MLC chart [2, 12]: + | growth in MIC/MLC chart ([2]; analog 3.12 μg/ml + doxycycline 1.53 μg/ml): + | growth in MIC/MLC chart ([2]; analog 3.12 μg/ml + doxycycline 3.05 μg/ml): + | growth in MIC/MLC chart ([2]; analog 3.12 μg/ml + doxycycline 6.1 μg/ml): + | growth in MIC/MLC chart ([2]; analog 6.25 μg/ml + doxycycline 3.0 μg/ml): + | growth in MIC/MLC chart ([2]; analog 6.25 μg/ml + doxycycline 5.9 μg/ml): + | growth in MIC/MLC chart ([2]; analog 6.25 μg/ml + doxycycline […]): + | growth in MIC/MLC chart ([2]; analog 12.5 μg/ml + doxycycline 2.8 μg/ml): + | growth in MIC/MLC chart ([2]; analog 12.5 μg/ml + doxycycline 5.5 μg/ml): + | growth in MIC/MLC chart ([2]; analog 12.5 μg/ml + doxycycline […]): + | growth in MIC/MLC chart ([2]; analog 25 μg/ml + doxycycline 2.4 μg/ml): + | growth in MIC/MLC chart ([2]; analog 25 μg/ml + doxycycline 4.7 μg/ml): + | growth in MIC/MLC chart ([2]; analog 25 μg/ml + doxycycline […]): + | growth in MIC/MLC chart ([2]; analog 50 μg/ml + doxycycline 1.56 μg/ml): + | growth in MIC/MLC chart ([2]; analog 50 μg/ml + doxycycline 3.12 μg/ml): + | growth in MIC/MLC chart ([2]; analog 50 μg/ml + doxycycline .78 μg/ml): + | growth in MIC/MLC chart [2, 13]: + | growth in MIC/MLC chart [2, 14]: + | growth in MIC/MLC chart [2, 15]: + | growth in MIC/MLC chart [2, 16]: + | growth in MIC/MLC chart [2, 17]: + | growth in MIC/MLC chart [2, 18]: + | growth in MIC/MLC chart [2, 19]: + | growth in MIC/MLC chart [2, 20]: + | growth in MIC/MLC chart [2, 21]: + | growth in MIC/MLC chart [2, 22]: + | growth in MIC/MLC chart [2, 23]: + | growth in MIC/MLC chart ([2]; analog .78 μg/ml + doxycycline 12.4 μg/ml): + | growth in MIC/MLC chart [3, 6]: + | growth in MIC/MLC chart [3, 7]: + | growth in MIC/MLC chart [3, 8]: + | growth in MIC/MLC chart [3, 9]: + | growth in MIC/MLC chart [3, 10]: + | growth in MIC/MLC chart [3, 11]: + | growth in MIC/MLC chart [3, 12]: + | growth in MIC/MLC chart [3, 13]: + | growth in MIC/MLC chart [3, 14]: + | growth in MIC/MLC chart [3, 15]: + | growth in MIC/MLC chart [3, 16]: + | growth in MIC/MLC chart [3, 17]: + | growth in MIC/MLC chart [3, 18]: + | growth in MIC/MLC chart [3, 19]: + | growth in MIC/MLC chart [3, 20]: + | growth in MIC/MLC chart [3, 21]: + | growth in MIC/MLC chart [3, 22]: + | growth in MIC/MLC chart [3, 23]: + | growth in MIC/MLC chart [4, 7]: + | growth in MIC/MLC chart [4, 13]: + | growth in MIC/MLC chart [5, 7]: + | growth in MIC/MLC chart [5, 8]: + | growth in MIC/MLC chart [5, 9]: + | growth in MIC/MLC chart [5, 13]: + | growth in MIC/MLC chart [5, 14]: +

CCCCCCCCCCSCC1c2cccc(O)c2C(=O)C2=C(O)C3(O)C(=O)C(C(N)=O)=C(O)C(N(C)C)C3C(O)C21 (stereo not drawn) [Decyl]
Ki [1]: 8.0 µg/mL

C[C@H]1c2cccc(O)c2C(O)=C2C(=O)[C@]3(O)C(O)=C(C(N)=O)C(=O)[C@@H](N(C)C)[C@@H]3[C@@H](O)[C@@H]21 [Doxy, Doxycycline, reference compound]
growth in MIC/MLC chart [2, 24]: + | growth in MIC/MLC chart [2, 25]: + | growth in MIC/MLC chart [2, 26]: + | growth in MIC/MLC chart [2, 27]: + | growth in MIC/MLC chart ([2]; Doxy Control: doxycycline alone 25.0 μg/ml): + | growth/killing, Doxy Control ([2]; Doxy alone 1.56 μg/ml): + | growth/killing, Doxy Control ([2]; Doxy alone 3.12 μg/ml): + | growth/killing, Doxy Control ([2]; Doxy alone 6.25 μg/ml): + | growth/killing, Doxy Control ([2]; Doxy alone 12.5 μg/ml): + | growth/killing, Doxy Control ([2]; Doxy alone 25.0 μg/ml): + | growth in MIC/MLC chart [3, 24]: + | growth in MIC/MLC chart [3, 25]: + | growth in MIC/MLC chart [3, 26]: + | growth in MIC/MLC chart [3, 27]: + | growth/killing, Doxy Control ([3]; Doxy alone 1.56 μg/ml): + | growth/killing, Doxy Control ([3]; Doxy alone 3.12 μg/ml): + | growth/killing, Doxy Control ([3]; Doxy alone 6.25 μg/ml): + | growth/killing, Doxy Control ([3]; Doxy alone 12.5 μg/ml): + | growth in MIC/MLC chart [4, 24]: + | growth in MIC/MLC chart [4, 25]: + | growth in MIC/MLC chart [4, 26]: + | growth in MIC/MLC chart [4, 27]: + | growth/killing, Doxy Control ([4]; Doxy alone 1.56 μg/ml): + | growth/killing, Doxy Control ([4]; Doxy alone 3.12 μg/ml): + | growth/killing, Doxy Control ([4]; Doxy alone 6.25 μg/ml): + | growth/killing, Doxy Control ([4]; Doxy alone 12.5 μg/ml): + | growth in MIC/MLC chart [5, 24]: + | growth in MIC/MLC chart [5, 25]: + | growth in MIC/MLC chart [5, 26]: + | growth/killing, Doxy Control ([5]; Doxy alone 1.56 μg/ml): + | growth/killing, Doxy Control ([5]; Doxy alone 3.12 μg/ml): + | growth/killing, Doxy Control ([5]; Doxy alone 6.25 μg/ml): +

CCCCCCSCC1c2cccc(O)c2C(=O)C2=C(O)C3(O)C(=O)C(C(N)=O)=C(O)C(N(C)C)C3C(O)C21 (stereo not drawn) [Hexyl]
pKi [1]: 5.26
